target: T1, GPx4 embedded in a mmRM (membrane-bound GPx4) (Homo sapiens, UniProt P36969, U73G); assay: NMR (15N-HSQC) titration of fragments against GPx4 embedded in DLPC/DPC mmRM, apparent Kd; format: binding; conditions: Table 1; GPx4 in DLPC/DPC mmRM, NMR titration up to 400 μM or 1 mM; ± standard error of global Kd fit; read-out: Kd (apparent)
T1 construct: Truncated U46G-GPx4 with a TEV cleavable poly-histidine tag was inserted into vector; poly-histidine tag with TEV cleavage site; host or cells: BL21 (DE3) E. coli
T1 sequence (P36969 1-170 isoform P36969-2 U46G): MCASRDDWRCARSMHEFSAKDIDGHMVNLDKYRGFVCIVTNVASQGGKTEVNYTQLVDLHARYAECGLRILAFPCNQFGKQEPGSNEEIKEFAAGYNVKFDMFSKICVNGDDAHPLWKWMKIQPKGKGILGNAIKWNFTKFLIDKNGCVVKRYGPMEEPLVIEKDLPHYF
Text: To assess whether the fragment hits are bound specifically to GPx4 and to calculate affinity, we performed NMR-based titrations. Chemical shift changes that approach saturation in a structurally localized manner target indicate specific binding.[24] This allows true positive hits to be separated from false positives and weak or nonspecific binders. Additionally, NMR-based titrations allow for the extraction of a binding affinity (Kd). To calculate apparent Kd values, CSP cutoffs were used to isolate the resonances with most shifting using 1 standard deviation above the average CSP. All 14 fragments identified from the deconvolutions were titrated up to 400 μM or 1 mM if needed. Of the 14, 9 had apparent Kds less than 1 mM and were identified as hits. Observed here is a 0.47% hit rate with best affinities in the μM range for the membrane-bound form of GPx4 and is consistent with ligandable and potentially druggable targets.[14],[57] […] The remaining five fragments, 10–14, were ruled out as weaker (>∼1 mM) or nonspecific binders. Weak or nonspecific binding could indicate that fragments partitioning to the mmRM surface and perturb the protein spectrum through a simple change in the chemical environment at the interface, among other possible nonspecific effects. […] We note that the weaker and nonspecific fragments were only eliminated due to interaction modes that are too weak or unproductive for advancement toward inhibitors; yet, binding was nevertheless detected. […] We note here that apparent Kd values reported in this study account for a total amount of fragment and protein within the mmRM sample and are not corrected for any potential concentrating effect due to localization of fragment to the mmRM surface or water phase.
NMR samples were prepared with ^15N-isotopically labeled protein with 10% v/v of d-pentane as the lock solvent (Sigma-Aldrich, St. Louis, MO). All NMR spectra were collected at 25 °C on a 700 MHz Bruker Avance III instrument. All NMR spectra were processed using NMRPipe[66] and analyzed using NMRFAM-Sparky.[67] Chemical shifts for GPx4 (BMRB 50955) were assigned from those previously published.[52] Chemical shift perturbations from ^15N-HSQC spectra were calculated using the following formula [drawing 1] where Δ^1H and Δ^15N are the changes in ^1H and ^15N chemical shifts, respectively.
The 14 fragments isolated from deconvolutions were purchased from Life Chemicals (fragments 1, 4, 6, and 11, and 12–14), Combi-Blocks (2, 3, 5, 9, and 10), or ChemBridge Hit2Lead (7 and 8). All fragment 1 and 5 analogues were also purchased from ChemBridge Hit2Lead. Fragments and analogues purchased from Life Chemicals and Hit2Lead are 90+% pure, while the fragments purchased from Combi-Blocks ranged from 95 to 97% pure. The day prior to the titration, a double-volume sample of encapsulated GPx4 was made before being split up into two separate vials. Half of the sample was added to the vial containing predried fragment corresponding to 400 μM or 1 mM. […] If they were, then the two samples were mixed to produce varying concentrations and to measure a titration curve. The top-shifting resonances were determined by calculating the average CSP at 400 μM or 1 mM and 1 and 2 standard deviations (σ) above that average. The CSP for the resonance at each fragment concentration was extracted and fit to a curve using an affinity equation that accounts for ligand depletion [drawing 2]
Any resonance producing a curve with an R^2 below 0.85 was removed, and the remaining resonances were then used to fit a global apparent Kd curve for the fragment hit. Standard error for Kd from the global fit of all of the selected residues is reported.

| Kd | SMILES |
| --- | --- |
| 140 ± 85 µM | COCC(=O)N1CCOc2ccccc2C1 [Fragment 4] |
| 840 ± 300 µM | CCOC(=O)c1ccc(Cl)nn1 [Fragment 9] |
| 310 ± 100 µM | NCc1nc(-c2ncccn2)no1 [Fragment 7] |
| 370 ± 165 µM | CC(=O)c1c(C)nn(CC(=O)O)c1C [Fragment 8] |
| 110 ± 65 µM | N#Cc1ccc(CC(=O)O)cc1 [Fragment 2] |
| 140 ± 50 µM | NCCS(=O)(=O)c1ccccc1 [Fragment 3] |

same assay, conditions: Table 2, analogues of fragment 5; GPx4 in mmRM; ± standard error of global Kd fit; read-out: Apparent Kd

| Kd | SMILES |
| --- | --- |
| 15 ± 10 µM | Cc1ccc(-c2cc(O)cc3sc(=O)oc23)cc1Cl [Analog 5.7] |
| > 400 µM | O=c1oc2c(-c3ccccc3)cc(O)cc2s1 [Analog 5.1] |
| > 400 µM | Cc1cccc(-c2cc(O)cc3sc(=O)oc23)c1 [Analog 5.2] |
| 25 ± 10 µM | O=c1oc2c(-c3cccc(Cl)c3)cc(O)cc2s1 [Analog 5.6] |
| 40 ± 20 µM | O=c1oc2c(-c3ccc(Cl)cc3)cc(O)cc2s1 [Analog 5.4] |
| 85 ± 50 µM | O=c1oc2c(-c3ccccc3Cl)cc(O)cc2s1 [Analog 5.3] |

— publication PMC11267533, “Ligandability at the Membrane Interface of GPx4 Revealed through a Reverse Micelle Fragment Screening Platform” (JACS Au, 2024)
